The results in this text go back to PubChem BioAssay (NCI).

Among the test systems are LOX IMVI melanoma; MDA-MB-435; MOLT-4 leukemia; SR leukemia; CAKI-1 renal; OVCAR-4 ovarian; U251 CNS; SN12C renal; K-562 leukemia; SF-268 CNS.
What all share (test): NCI anticancer screen, dose series, 48 h

Where “and” joins values, the source holds several entries; their conditions need not be identical. Equal entries are not always repeated.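 These data come from cells grown in 96-well plates and exposed to compound for 48 hours at five concentrations. GI50: concentration for 50% inhibition of growth. TGI denotes the concentration required for complete inhibition of growth.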

On to `CN(C[C@@H]1COCCO1)S(=O)(=O)Nc1ccc2ccc3ncc(-c4cnn(C)c4)cc3c(=O)c2c1`, for which the GI50 in the experiment with LOX IMVI melanoma is 3.37 µM; with MDA-MB-435, 7.13 µM; in the experiment on MOLT-4 leukemia it was 4.08 µM; in the experiment on SR leukemia, 3.05 µM; in the experiment on CAKI-1 renal it was 1.94 µM; with OVCAR-4 ovarian, 5.65 µM. Also, the GI50 is 2.34 µM in the experiment with U251 CNS, 3.53 µM in the experiment on SN12C renal, 6.57 µM with K-562 leukemia and 4.26 µM in the experiment on SF-268 CNS. The TGI is more than 100 µM in the experiment with LOX IMVI melanoma; more than 100 µM with MDA-MB-435; more than 91.3 µM with MOLT-4 leukemia; more than 100 µM in the experiment with SR leukemia; more than 27.4 µM in the experiment on CAKI-1 renal; more than 100 µM in the experiment with OVCAR-4 ovarian. The TGI in the experiment on U251 CNS, in the experiment on SN12C renal, in the experiment with K-562 leukemia and with SF-268 CNS was more than 100 µM in each case.

Take `N#Cc1ccc(C(c2ccc(C#N)cc2)n2cncn2)cc1`: the GI50 in the experiment with LOX IMVI melanoma, in the experiment with MDA-MB-435, in the experiment with MOLT-4 leukemia, in the experiment on SR leukemia, with CAKI-1 renal and in the experiment with OVCAR-4 ovarian was more than 5000 µM in each case. Moreover, the GI50 in the experiment on U251 CNS was 2850 µM; in the experiment with SN12C renal, more than 5000 µM; in the experiment on K-562 leukemia it was 3800 µM; in the experiment with SF-268 CNS, more than 5000 µM. In addition, the TGI in the experiment with LOX IMVI melanoma, with MDA-MB-435, in the experiment with MOLT-4 leukemia, in the experiment on SR leukemia, in the experiment on CAKI-1 renal and with OVCAR-4 ovarian was more than 5000 µM throughout. In addition, the TGI in the experiment on U251 CNS, with SN12C renal, in the experiment with K-562 leukemia and in the experiment on SF-268 CNS was more than 5000 µM each time.

`CCOC(=O)c1cc2c(n1Cc1ccccc1)-c1oncc1CC2`: the GI50 with LOX IMVI melanoma is 5.5 µM; with MDA-MB-435, 0.878 µM; in the experiment on MOLT-4 leukemia, 4.73 µM; in the experiment with SR leukemia, 2.56 µM; in the experiment on CAKI-1 renal, 3.24 µM; in the experiment with OVCAR-4 ovarian, 7.69 µM. The GI50 with U251 CNS is 4.73 µM; in the experiment on SN12C renal, 10 µM; in the experiment on K-562 leukemia it was 2.48 µM; in the experiment on SF-268 CNS, 6.89 µM. The TGI was 25.4 µM with LOX IMVI melanoma; 4.37 µM in the experiment with MDA-MB-435; 44.6 µM in the experiment on MOLT-4 leukemia; 15.5 µM in the experiment with SR leukemia; 18.8 µM with CAKI-1 renal; more than 100 µM in the experiment on OVCAR-4 ovarian. The TGI in the experiment on U251 CNS was 34 µM; in the experiment with SN12C renal it was 55.8 µM; in the experiment with K-562 leukemia it was more than 100 µM; with SF-268 CNS it was 79 µM.

Consider `N[C@@H]1CCCN(c2c(/C=C3\SC(=O)NC3=O)cccc2-c2ccccc2)C1`, for which the GI50 was 15.7 µM in the experiment with LOX IMVI melanoma; 11.4 µM with MDA-MB-435; 14.7 µM in the experiment with MOLT-4 leukemia; 4.64 µM in the experiment with SR leukemia; 15 µM in the experiment on CAKI-1 renal; 13.2 µM in the experiment on OVCAR-4 ovarian. Further, the GI50 was 3.3 µM with U251 CNS, 14.4 µM in the experiment with SN12C renal, 11.7 µM with K-562 leukemia and 16.1 µM in the experiment on SF-268 CNS. For the same molecule, the TGI in the experiment with LOX IMVI melanoma was 30.1 µM; in the experiment with MDA-MB-435, 24.3 µM; with MOLT-4 leukemia, 45.6 µM; in the experiment with SR leukemia, 26.2 µM; in the experiment with CAKI-1 renal, 31.7 µM; with OVCAR-4 ovarian, 28.4 µM. Moreover, the TGI is 15.3 µM in the experiment with U251 CNS, 29.5 µM with SN12C renal, 54.2 µM in the experiment with K-562 leukemia and 33.2 µM in the experiment with SF-268 CNS.

On to `Nc1c(C(=O)Nc2ccccc2F)sc2nc3c(cc12)C(=O)CCC3`, for which the GI50 is 8.58 µM in the experiment with LOX IMVI melanoma; 0.216 µM in the experiment on MDA-MB-435; more than 100 µM with MOLT-4 leukemia; 1.68 µM with SR leukemia; 1.76 µM in the experiment on CAKI-1 renal; more than 21 µM with OVCAR-4 ovarian. Also, the GI50 in the experiment on U251 CNS was 1.23 µM; in the experiment on SN12C renal, more than 65.3 µM; in the experiment with K-562 leukemia, 0.553 µM; in the experiment with SF-268 CNS, more than 30.6 µM. The TGI in the experiment with LOX IMVI melanoma is more than 100 µM; in the experiment on MDA-MB-435, 0.661 µM; in the experiment with MOLT-4 leukemia it was more than 100 µM; in the experiment with SR leukemia, more than 100 µM; in the experiment with CAKI-1 renal, more than 100 µM; in the experiment with OVCAR-4 ovarian, more than 100 µM. In addition, the TGI in the experiment with U251 CNS, in the experiment with SN12C renal, in the experiment on K-562 leukemia and in the experiment with SF-268 CNS was more than 100 µM each time.

As to `CC/C(C)=C1\OC(=O)C(C)C(O)C(Cc2cccnc2)NC(=O)C(NC(=O)c2ncccc2O)C(C)OC1=O` (configuration not stated), the TGI in the experiment on LOX IMVI melanoma, in the experiment with MDA-MB-435, in the experiment with MOLT-4 leukemia, with SR leukemia, with CAKI-1 renal and in the experiment with OVCAR-4 ovarian was more than 100 µM in each case. Moreover, the TGI in the experiment with U251 CNS, in the experiment on SN12C renal, in the experiment on K-562 leukemia and with SF-268 CNS was more than 100 µM each time.

For the molecule `Nc1nc(N)c2nc(CNc3ccc(C(=O)NC(CCCNC(=O)c4ccccc4C(=O)O)C(=O)O)cc3)cnc2n1` (configuration not stated), the GI50 in the experiment with LOX IMVI melanoma was 0.000373 µM; in the experiment with MOLT-4 leukemia, 0.00353 µM; with SR leukemia it was 0.000424 µM; in the experiment on CAKI-1 renal, 0.00224 µM; in the experiment with OVCAR-4 ovarian, more than 100 µM; in the experiment with SN12C renal, 0.00227 µM. In addition, in the experiment on K-562 leukemia, the GI50 is < 0.0242 µM and 0.000381 µM. The TGI with LOX IMVI melanoma, with MDA-MB-435, in the experiment with MOLT-4 leukemia, in the experiment on SR leukemia, in the experiment on CAKI-1 renal and with OVCAR-4 ovarian was more than 100 µM in each case. The TGI with U251 CNS, in the experiment with SN12C renal, in the experiment with K-562 leukemia and with SF-268 CNS was more than 100 µM throughout.

On to `CCCCn1sc(=O)n(Cc2ccc(CNC(=O)OCc3ccc4c(Br)cc(Br)c(O)c4n3)cc2)c1=O`, for which the GI50 in the experiment on LOX IMVI melanoma was 0.403 µM; in the experiment with MDA-MB-435, 0.257 µM; with MOLT-4 leukemia, 0.895 µM; in the experiment with SR leukemia, 0.404 µM; in the experiment on CAKI-1 renal, 0.609 µM; in the experiment with OVCAR-4 ovarian it was 0.701 µM. Besides, the GI50 was 0.659 µM in the experiment with U251 CNS, 0.53 µM with SN12C renal, 0.434 µM in the experiment with K-562 leukemia and 1.05 µM in the experiment with SF-268 CNS. Moreover, the TGI in the experiment on LOX IMVI melanoma was more than 100 µM; in the experiment on MDA-MB-435, 0.731 µM; in the experiment with MOLT-4 leukemia, more than 100 µM; with SR leukemia it was more than 100 µM; with CAKI-1 renal, more than 100 µM; with OVCAR-4 ovarian, more than 100 µM. Also, the TGI in the experiment with U251 CNS, in the experiment on SN12C renal, with K-562 leukemia and in the experiment with SF-268 CNS was more than 100 µM each time.

For the molecule `CC1=C[S+](c2ccccc2)c2cccc3cc4ccccc4c1c23` (configuration not stated), the GI50 in the experiment with LOX IMVI melanoma was 0.697 µM; in the experiment on MDA-MB-435, 0.276 µM; in the experiment on MOLT-4 leukemia, 0.572 µM; in the experiment on SR leukemia, 0.297 µM; in the experiment on CAKI-1 renal it was 0.815 µM; in the experiment on OVCAR-4 ovarian, 0.773 µM. Also, the GI50 in the experiment with U251 CNS was 0.0458 µM; in the experiment on SN12C renal it was 0.172 µM; with K-562 leukemia, 0.0712 µM; in the experiment on SF-268 CNS, 0.237 µM. The TGI with LOX IMVI melanoma is 2.23 µM; in the experiment on MDA-MB-435, 1.61 µM; with MOLT-4 leukemia, 9.26 µM; with SR leukemia it was 2.14 µM; with CAKI-1 renal, 8.02 µM; with OVCAR-4 ovarian it was 2.44 µM. The TGI is 0.337 µM with U251 CNS, 1.25 µM with SN12C renal, 3.85 µM with K-562 leukemia and 1.76 µM in the experiment on SF-268 CNS.

With `C=C(C)[C@@H]1CC[C@]2(COC3CCCCO3)CC[C@]3(C)[C@H](CC[C@@H]4[C@@]5(C)C=C(C=O)C(=O)C(C)(C)[C@@H]5CC[C@]43C)[C@@H]12` (some centres not stated), the GI50 is 1.36 µM in the experiment with LOX IMVI melanoma; 1.05 µM in the experiment with MDA-MB-435; 1.03 µM in the experiment with MOLT-4 leukemia; 1.52 µM in the experiment with SR leukemia; 1.34 µM in the experiment with CAKI-1 renal; 2.01 µM with OVCAR-4 ovarian. The GI50 with U251 CNS is 1.18 µM; in the experiment on SN12C renal, 2.06 µM; with K-562 leukemia, 1.64 µM; with SF-268 CNS, 1.34 µM. For the same molecule, the TGI was 2.73 µM in the experiment on LOX IMVI melanoma; 2.32 µM in the experiment on MDA-MB-435; 29.9 µM with MOLT-4 leukemia; 6.78 µM in the experiment on SR leukemia; 2.61 µM in the experiment with CAKI-1 renal; 3.89 µM with OVCAR-4 ovarian. Moreover, the TGI stood at 2.71 µM with U251 CNS, 5.57 µM in the experiment on SN12C renal, 5.98 µM in the experiment on K-562 leukemia and 3.05 µM in the experiment with SF-268 CNS.

In the case of `COc1ccc(C(=O)COc2cccc(/C=C3\CSc4ccc(C)cc4C3=O)c2)cc1`, the GI50 in the experiment on LOX IMVI melanoma is 2.53 µM; in the experiment on MDA-MB-435, 3.59 µM; in the experiment with MOLT-4 leukemia, 3.13 µM; in the experiment on SR leukemia it was 1.98 µM; in the experiment on CAKI-1 renal it was 28.7 µM; in the experiment on OVCAR-4 ovarian, 7.26 µM. The GI50 with U251 CNS was 7.38 µM; with SN12C renal, 31.8 µM; in the experiment with K-562 leukemia it was 2.17 µM; in the experiment with SF-268 CNS, 19.3 µM. Also, the TGI in the experiment with LOX IMVI melanoma was 8.06 µM; with MDA-MB-435, 83.9 µM; in the experiment with MOLT-4 leukemia, 10.2 µM; in the experiment on SR leukemia, 5.25 µM; in the experiment on CAKI-1 renal, more than 100 µM; with OVCAR-4 ovarian, more than 100 µM. For the same molecule, the TGI with U251 CNS was more than 100 µM; in the experiment on SN12C renal, more than 100 µM; with K-562 leukemia, 6.9 µM; in the experiment with SF-268 CNS, 72.9 µM.
